Measured values taken from patent publication US10011874B2, “Androgen receptor mutation” (NOVARTIS AG, priority 2013, dated 2018).

How the values were obtained:
[1] = test system: strongly resistant LNCaP clones #1, 15, 19, 24 (AR F877L/T878A); assay: Short-term CellTiter-Glo growth assay, strongly resistant LNCaP clones; format: cell-based; settings: for growth sensitivity compared with bicalutamide: strongly resistant clones, FIG. 6B
Experimental: (§1) Cells were re-seeded into 150 cm^2 dishes supplemented with the appropriate treatments once each week. Media and compound was replaced for dish 4 once every week. Once resistant clones emerged, media was aspirated from dish 4. […] Cells from control dishes 1-3 were maintained until resistant clones were cryopreserved to maintain a constant culture time for control and experimental lines.
(§2) 1000 cells (spontaneous resistant or engineered lines) were seeded in media supplemented with 10% FCS. For spontaneous resistant clones, increasing concentrations of compounds were added on the day of seeding whereas for engineered lines, compounds were added after 2 d of doxycycline treatment. In all cases growth assays were performed using CellTiter-Glo Luminescent Cell Viability Assay Reagent (Promega, cat# G7573) 7 d following compound treatment.

[2] = test system: LNCaP lines engineered to express AR-F877L/T878A; assay: Long-term colony formation assay, LNCaP expressing AR-F877L/T878A; format: cell-based; settings: for growth sensitivity compared with bicalutamide: AR-F877L/T878A LNCaP lines, FIG. 6C colony formation
Experimental: (§3) Codon-optimized cDNAs encoding WT or mutant ARs were synthesized (DNA2.0) and subcloned into the pLKO-TREX-HA-Neo (Invitrogen). […] Virus was harvested 2-3 d after transfection, filtered, and used to infect LNCaP, MyC-CaP and VCaP cell cultures in the presence of 8 μg ml-1 polybrene. Infected cells were maintained in neomycin for 3 weeks. In all cases, at least 1000 independent clones were pooled to generate stable cell lines to avoid clonal variations. Stable cell lines infected with control vectors were generated in parallel for use as experimental controls.
(§4) 5000-7500 cells (spontaneous resistant or engineered lines) were seeded in 6-well plates in media supplemented with 10% FCS. […] Viable colonies were stained after 3-4 week cultures. Following media aspiration, 0.5% crystal violet was added to the wells and left overnight. The next morning, crystal violet solution was removed and wells were carefully washed with ddH2O to remove residual staining solution. The plates were air-dried overnight prior to imaging.

[3] = test system: AR target genes KLK3, NKX3-1 and SLC45A3 in strongly resistant clones; assay: qPCR of AR target genes in strongly resistant clones; format: cell-based; settings: 24 h
Experimental: (§5) For spontaneous clones: 200 k cells were seeded in 6 well plates in RPMI 1640 supplemented with 10% FCS for 2 d prior to treatment with various compounds for 24 h. Alternatively, for experiments involving androgen-depletion, 200 k cells were seeded and grown in 6 well plates in phenol-free RPMI 1640 supplemented with 10% FCS for 2 d. […] Similar protocols were applied for genetically engineered lines except that cells were pretreated with Dox for at least 2 d prior to treatment with various compounds to allow sufficient transgene expression. Total RNA was extracted using the RNeasy plus mini kit (Qiagen, cat#74136) according to the manufacturer's instructions. 1-2 μg of total RNA was used for cDNA synthesis using a high capacity cDNA reverse transcription kit (Applied Biosystems, cat#4368813). cDNA from each sample was diluted 15-20 fold and real-time was performed in triplicates using gene-specific primers and FastStart Universal Probe Master Mix (Rox) (Roche Applied Science) on an ABI 7900HT series PCR machine. Expression levels were normalized to TBP expression. All analysis was performed using the SDS2.3 software. The following gene-specific primers (Invitrogen) were used: AR (Hs00171172_m1), KLK3 (Hs02576345_m1), NKX3-1 (Hs00171834_m1), TMPRSS2 (Hs01120965_m1), SLC45A3 (Hs00263832_m1), TBP (Hs00427620_m1), DHFR (Hs00758822_s1) and TK1 (Hs01062125_m1).

[4] = test system: AR localization in control (C1) LNCaP line; assay: Nuclear/cytoplasmic fractionation of AR, control line C1; format: cell-based; settings: 10 μM, 24 h
Experimental: (§7) The next day, cells were harvested with trypsin, centrifuged at 500×g for 5 min, washed with PBS, transferred to 1.5 ml microcentrifuge tubes and pelleted by centrifugation at 500×g for 2-3 min. […] Briefly, the pellet was resuspended in 500 μl of ice-cold Cer I buffer and incubated on ice for 10 min. Following incubation, 27.5 μl of ice-cold Cer II buffer was added, vortexed and incubated for 1 min on ice. The lysate/Cer I/II mixture was vortexed again, centrifuged at 14000×g for 5 min and the cytoplasmic extract (supernatant) was transferred to pre-chilled tubes. The insoluble pellet, which contains nuclei, was resuspended in ice-cold 250 μl NER buffer, vortexed and placed on ice. Sample was vortexed for 15 s every 10 min for a total of 40 min. Following incubation, samples were centrifuged at 14000×g for 10 min. Supernatant, which contains the nuclear extract, was transferred to pre-chilled tubes. These samples were processed for immunoblot analysis as described above.

[5] = test system: AR localization in strongly resistant clone #1; assay: Nuclear/cytoplasmic fractionation of AR, strongly resistant clone #1; format: cell-based; settings: 10 μM, 24 h
Experimental: as §7

[6] = test system: LNCaP control (C1) tumors; assay: In vivo tumorigenesis assay, control C1 xenografts; parameters: species or system castrated male nu/nu mice
Experimental: 10 million LNCaP cells (C1, clone #1) mixed 1:1 with matrigel were injected subcutaneously into the flank of castrated 7-8 week male nu/nu mice. […]. Tumors were measured using calipers and tumor volumes were calculated using length×width/2. Data is expressed as mean±SEM. All animal experiments were performed in compliance with the guidelines of Novartis Biomedical Research Animal Care and Use Committee protocols and regulations.

[7] = test system: E2F1 target genes DHFR and TK1 in control line; assay: qPCR of E2F1 target genes in control line; format: cell-based; settings: 10 μM, 24 h
Experimental: as §5

[8] = test system: AR pathway activity in control and weakly resistant lines; assay: Microarray clustering and GSEA of AR pathway activity, control and weakly resistant lines; format: cell-based; settings: 10 μM, 24 h
Experimental: (§6) Total RNA was isolated from cells using the Qiagen RNeasy Kit. RNA integrity and purity were assessed with the RNA 6000 Nano LabChip system on a Bioanalyzer 2100 (Agilent Technologies). Generation of labeled cDNA and hybridization to Affymetrix GeneChip Human Genome U133 Plus 2.0 Array (Affymetrix Inc.) was performed using standard protocols as previously described (8). Probesets from the Affymetrix gene expression datasets were normalized using MASS with a trimmed-mean target of 150, and log 2-transformed. Probesets were then filtered for inclusion only if their maximum value over different samples was at least 5. […] This regression was used to generate nominal p-values and regression coeffecients (i.e. fold-changes).

[9] = test system: AR pathway activity in strongly resistant clones; assay: Microarray clustering and GSEA of AR pathway activity, strongly resistant clones; format: cell-based; settings: 10 μM, 24 h
Experimental: as §6

[10] = test system: LNCaP cells; assay: Culture of LNCaP cells with MDV3100; format: cell-based; settings: short-term culture (<1.5 months); FCS+MDV relative to FCS
Experimental: as §1, with “2 million LNCaP cells were seeded into four 150 cm^2 tissue culture dishes in phenol red-free RPMI 1640 media supplemented with 10% FCS. […] Cells were” for “Cells were”

[11] = randomized clinical trial; cited from earlier work
[12] = test system: CYP3A4; settings: in humans; cited from earlier work
[13] = test system: CYP2C9; settings: in humans; cited from earlier work
[14] = test system: CYP2C19; settings: in humans; cited from earlier work
[15] = test system: LNCaP cells, controls (C1-C3); assay: cells; settings: Homo sapiens, read-out: aggregate IC50, growth inhibition
Experimental: as §1, §2

[16] = test system: weakly resistant LNCaP clones #9, 10 and 14; assay: Short-term CellTiter-Glo growth assay, weakly resistant LNCaP clones; format: cell-based; settings: Homo sapiens, read-out: aggregate IC50, growth inhibition
Experimental: as §1, §2

[17] = test system: W742C/T878A mutant AR (KLK3 expression); format: cell-based
Experimental: as §3

[18] = test system: LNCaP lines engineered to express W742C/T878A AR
Experimental: as §3, §4

[19] = test system: W742L and W742C mutant ARs; assay: AR luciferase reporter transactivation assay, W742 mutants; format: cell-based, human; settings: 10 μM, FIG. 12
Experimental: Reporter assays were performed as follows: 3×10^5 HEK293T cells were seeded in 6-well plates in DMEM supplemented with 10% FCS and 1×NEAA 24 h prior to transfection. Alternatively, 1×10^6 VCaP cells or 3×10^5 PC3 cells were seeded in 6-well plates in appropriate media supplemented with 10% CSS 24 h prior to transfection. […] Cells were collected ˜16 h following treatment and assayed for luciferase activity using the Glomax 96 microplate luminometer (Promega). Firefly activity was normalized to Renilla using the Dual Luciferase Assay reagent (Promega, E1910). All experiments were performed at least three times.

[20] = test system: T878A-bearing mutant alleles of AR (KLK3 expression); assay: qPCR of KLK3 in LNCaP engineered to express T878A-bearing mutant ARs; format: cell-based; settings: 10 μM; 10% FCS; FIG. 15
Experimental: […]. […] Infected cells were maintained in neomycin for 3 weeks.
as §5, with “The following gene-specific primers (Invitrogen) were used: AR (Hs00171172_m1), KLK3 (Hs02576345_m1), NKX3-1 (Hs00171834_m1), TMPRSS2 (Hs01120965_m1), SLC45A3 (Hs00263832_m1), TBP (Hs00427620_m1), DHFR (Hs00758822_s1) and TK1 (Hs01062125_m1).” left out

Question: What does the source list for `CN(C)C(=O)c1cc2cnc(Nc3ccc(N4CCNCC4)cn3)nc2n1C1CCCC1` [LEE011, 7-Cyclopentyl-2-(5-piperazin-1-yl-pyridin-2-ylamino)-7H-pyrrolo[2,3-d]pyrimidine-6-carboxylic acid dimethylamide]?
Answer: growth sensitivity compared with bicalutamide [1]: as sensitive; growth sensitivity compared with bicalutamide [2]: as sensitive

Question: With `CNC(=O)c1ccc(N2C(=S)N(c3ccc(C#N)c(C(F)(F)F)c3)C(=O)C2(C)C)cc1F` [MDV3100, 4-{3-[4-cyano-3-(trifluoromethyl)phenyl]-5,5-dimethyl-4-oxo-2-sulfanylideneimidazolidin-1-yl}-2-fluoro-N-methylbenzamide] as the molecule, how does the “effect on expression of AR target genes KLK3, NKX3-1 and SLC45A3” value ([3]; 10 μM, 10% FCS, FIG. 2c) read?
Answer: blunted effects

Question: And the KLK3 expression ([3]; media stripped of androgens (10% CSS), alone or with agonist)?
Answer: significantly enhanced KLK3 expression

Question: What about the “nuclear AR localization” value [4] of the same molecule?
Answer: significantly impaired

Question: And the “nuclear AR localization” value [5]?
Answer: not significantly altered

Question: What about the “body weight during treatment period” value ([6]; control 1 xenograft mice, 30 mg/kg daily) of the same molecule?
Answer: No significant body weight loss

Question: What about the “tumor growth under treatment” value ([6]; control C1 tumors, 30 mg/kg daily) of the same molecule?
Answer: immediate stasis

Question: And the “tumor take rates, treated vs. vehicle” value ([6]; control cells C1, 9 of 15 vs. 10 of 15)?
Answer: indistinguishable

Question: And the “expression of E2F1 target genes DHFR and TK1” value [7]?
Answer: suppressed expression

Question: And the “AR pathway activity upon treatment” value [8]?
Answer: reduced AR pathway activity

Question: And the “AR pathway activity upon treatment” value [9]?
Answer: insignificant change

Question: And the “effect of short-term culture on cell population” value [10]?
Answer: population-wide stasis

Question: What about the “incidence of most common adverse drug reactions (asthenia/fatigue, back pain, diarrhea, arthralgia, hot flush etc.)” value [11] of the same molecule?
Answer: ≥ 5%

Question: What about the CYP3A4 induction [12] of the same molecule?
Answer: strong

Question: What about the CYP2C9 induction [13] of the same molecule?
Answer: moderate

Question: And the CYP2C19 induction [14]?
Answer: moderate

Question: With `CC(=O)c1c(C)c2cnc(Nc3ccc(N4CCNCC4)cn3)nc2n(C2CCCC2)c1=O` [PD0332991] as the molecule, how does the “growth sensitivity compared with bicalutamide” value [1] read?
Answer: as sensitive

Question: What about the “growth sensitivity compared with bicalutamide” value [2] of the same molecule?
Answer: as sensitive

Question: What does the source list for `CC(O)(CS(=O)(=O)c1ccc(F)cc1)C(=O)Nc1ccc(C#N)c(C(F)(F)F)c1` (stereo not drawn) [bicalutamide, N-[4-cyano-3-(trifluoromethyl)phenyl]-3-[(4-fluorophenyl)sulfonyl]-2-hydroxy-2-methylpropanamide]?
Answer: IC50 [15]: 1 µM; IC50 ([1]; Homo sapiens, LNCaP, read-out: aggregate IC50, growth inhibition): 5 µM; IC50 [16]: > 10 µM; agonist/antagonist behaviour on KLK3 expression [17]: antagonist-to-agonist switch; growth under treatment on expression of F877L/T878A allele [2]: remained sensitive; growth under treatment on expression of W742C/T878A allele [18]: significantly rescued growth; agonist/antagonist behaviour in AR reporter assay [19]: antagonist-to-agonist switch

Question: Which “agonist/antagonist behaviour on KLK3 expression” value [20] does the source give for `CC(C)(O)C(=O)Nc1ccc([N+](=O)[O-])c(C(F)(F)F)c1` [hydroxyflutamide] here?
Answer: antagonist-to-agonist switch
